Measured values: patent US20230077362A1 (CORTEVA AGRISCIENCE LLC, priority 2019, published 2023)
Where two headings read alike, the source gives them in different places.

Experiments:
[1] = tested on: Beet Armyworm (Spodoptera exigua) ("BAW"), second instar larvae; assay: Bioassay on beet armyworm (BAW), 128-well diet tray assay; assay type: in vivo; settings: Spodoptera exigua
Procedure: (§1) Certain molecules disclosed in this document were tested against BAW and CL using procedures described in the following examples. In the reporting of the results, the “BAW & CL Rating Table” was used (See Table Section).
(§2) Trays were covered with a clear self-adhesive cover and held at 25° C., 14:10 light-dark cycle for five to seven days. Percent mortality was recorded for the larvae in each well; activity in the eight wells was then averaged. The results are indicated in the table entitled “Table ABC: Biological Results” (See Table Section).

[2] = tested on: Cabbage Looper (Trichoplusia ni) ("CL"), second instar larvae; assay: Bioassay on cabbage looper (CL), 128-well diet tray assay; assay type: in vivo; settings: Trichoplusia ni
Procedure: as §1, §2

[3] = read-out: BAW (Biological Results, rating)
[4] = read-out: CL (Biological Results, rating)

SMILES	pest or weed control at 50 µg/cm2 ([1]; read-out: BAW rating) [%]	pest or weed control at 50 µg/cm2 ([2]; read-out: CL rating) [%]	pest or weed control at 50 µg/cm2 [1, 3] [%]	pest or weed control at 50 µg/cm2 [2, 4] [%]
Cc1ccc(C(C)C)c(N2C(=O)CS/C2=N\C(=O)Nc2ccc(-n3cnc(-c4ccc(C(F)(F)F)cc4)n3)cc2F)c1 [Compound J694, (Z)-1-(2-Fluoro-4-(3-(4-(trifluoromethyl)phenyl)-1H-1,2,4-triazol-1-yl)phenyl)-3-(3-(2-isopropyl-5-methylphenyl)-4-oxothiazolidin-2-ylidene)urea]	50 to 100	50 to 100		
Cc1ccc(COCC(F)(F)F)c(N2C(=O)CS/C2=N\C(=O)Nc2ccc(-c3ncn(-c4ccc(SC(F)(F)F)cc4)n3)cc2Cl)c1 [Compound J226, (Z)-1-(2-Chloro-4-(1-(4-((trifluoromethyl)thio)phenyl)-1H-1,2,4-triazol-3-yl)phenyl)-3-(3-(5-methyl-2-((2,2,2-trifluoroethoxy)methyl)phenyl)-4-oxothiazolidin-2-ylidene)urea]			50 to 100	50 to 100
Cc1ccc(OCCC(F)(F)F)c(N2C(=O)CS/C2=N\C(=O)Nc2ccc(-n3cnc(-c4ccc(OC(F)(F)F)cc4)n3)cc2C)c1 [Compound J441, (Z)-1-(3-(5-Methyl-2-(3,3,3-trifluoropropoxy)phenyl)-4-oxothiazolidin-2-ylidene)-3-(2-methyl-4-(3-(4-(trifluoromethoxy)phenyl)-1H-1,2,4-triazol-1-yl)phenyl)urea]	50 to 100	50 to 100		
COc1ccc(OCCC(F)(F)F)c(N2C(=O)CS/C2=N\C(=O)Nc2ccc(-c3ncn(-c4ccc(OC(F)(F)F)cc4)n3)cc2)c1 [Compound J320, (Z)-1-(3-(5-Methoxy-2-(3,3,3-trifluoropropoxy)phenyl)-4-oxothiazolidin-2-ylidene)-3-(4-(1-(4-(trifluoromethoxy)phenyl)-1H-1,2,4-triazol-3-yl)phenyl)urea]			50 to 100	50 to 100
CC(C)c1ccc(N(C)C)cc1N1C(=O)CS/C1=N\C(=O)Nc1ccc(-c2ccn(-c3ccc(C(F)(F)F)nn3)n2)cc1F [Compound J391]	50 to 100	50 to 100		
CC(C)c1cc(F)c(N(C)C)cc1N1C(=O)CS/C1=N\C(=O)Nc1ccc(-c2nnc(-c3ccc(OC(F)(F)F)cc3)s2)cc1F [Compound J507, (Z)-1-(3-(5-(Dimethylamino)-4-fluoro-2-isopropylphenyl)-4-oxothiazolidin-2-ylidene)-3-(2-fluoro-4-(5-(4-(trifluoromethoxy)phenyl)-1,3,4-thiadiazol-2-yl)phenyl)urea]	50 to 100	50 to 100		
Cc1ccc(C(C)C)c(N2C(=O)CS/C2=N\C(=O)Nc2ccc(-c3ncn(-c4ccc(OC(F)(F)F)cn4)n3)cc2F)c1 [Compound J270, (Z)-1-(2-Fluoro-4-(1-(5-(trifluoromethoxy)pyridin-2-yl)-1H-1,2,4-triazol-3-yl)phenyl)-3-(3-(2-isopropyl-5-methylphenyl)-4-oxothiazolidin-2-ylidene)urea]			50 to 100	50 to 100
CC(C)c1ccc(N(C)C)cc1N1C(=O)CS/C1=N\C(=O)Nc1ccc(-c2ncn(-c3ccc(S(F)(F)(F)(F)F)cc3)n2)cc1C(F)(F)F [Compound J630, (Z)-1-(3-(5-(Dimethylamino)-2-isopropylphenyl)-4-oxothiazolidin-2-ylidene)-3-(4-(1-(4-(pentafluoro-λ^6-sulfaneyl)phenyl)-1H-1,2,4-triazol-3-yl)-2-(trifluoromethyl)phenyl)urea]	50 to 100	50 to 100		
COc1cc(-c2ncn(-c3ccc(OC(F)(F)C(F)(F)F)cc3)n2)ccc1NC(=O)/N=C1\SCC(=O)N1c1cc(C)ccc1C(C)C [Compound J28, (Z)-1-(3-(2-Isopropyl-5-methylphenyl)-4-oxothiazolidin-2-ylidene)-3-(2-methoxy-4-(1-(4-(perfluoroethoxy)phenyl)-1H-1,2,4-triazol-3-yl)phenyl)urea]			50 to 100	50 to 100
COC(C)c1ccc(C)cc1N1C(=O)CS/C1=N\C(=O)Nc1ccc(-c2ncn(-c3ccc(OCC#N)cc3)n2)cc1C (centres unmarked) [Compound J358, (Z)-1-(4-(1-(4-(Cyanomethoxy)phenyl)-1H-1,2,4-triazol-3-yl)-2-methylphenyl)-3-(3-(2-(1-methoxyethyl)-5-methylphenyl)-4-oxothiazolidin-2-ylidene)urea]	50 to 100	50 to 100		
Cc1ccc(COCC(F)(F)F)c(N2C(=O)CS/C2=N\C(=O)Nc2ccc(-c3nnc(-c4ccc(OC(F)(F)F)cc4)o3)cc2F)c1 [Compound J430, (Z)-1-(2-Fluoro-4-(5-(4-(trifluoromethoxy)phenyl)-1,3,4-oxadiazol-2-yl)phenyl)-3-(3-(5-methyl-2-((2,2,2-trifluoroethoxy)methyl)phenyl)-4-oxothiazolidin-2-ylidene)urea]	50 to 100	50 to 100		
Cc1ccc(OCCC(F)(F)F)c(N2C(=O)CS/C2=N\C(=O)Nc2ccc(-c3ncn(-c4ccc(S(=O)(=O)C(F)(F)F)cc4)n3)cc2C#N)c1 [Compound J402, (Z)-1-(2-cyano-4-(1-(4-((trifluoromethyl)sulfonyl)phenyl)-1H-1,2,4-triazol-3-yl)phenyl)-3-(3-(5-methyl-2-(3,3,3-trifluoropropoxy)phenyl)-4-oxothiazolidin-2-ylidene)urea]	50 to 100	50 to 100		
Cc1ccc(COCC(F)(F)F)c(N2C(=O)CS/C2=N\C(=O)Nc2ccc(-c3cn(-c4ccc(C(F)(F)F)cn4)cn3)cc2C)c1 [Compound J511, (Z)-1-(3-(5-Methyl-2-((2,2,2-trifluoroethoxy)methyl)phenyl)-4-oxothiazolidin-2-ylidene)-3-(2-methyl-4-(1-(5-(trifluoromethyl)pyridin-2-yl)-1H-imidazol-4-yl)phenyl)urea]	50 to 100	50 to 100		
COC(c1ccc(C)cc1N1C(=O)CS/C1=N\C(=O)Nc1ccc(-c2cn(-c3ccc(S(F)(F)(F)(F)F)cc3)cn2)cc1F)C(F)(F)F (centres unmarked) [Compound J599, (Z)-1-(2-Fluoro-4-(1-(4-(pentafluoro-λ^6-sulfaneyl)phenyl)-1H-imidazol-4-yl)phenyl)-3-(3-(5-methyl-2-(2,2,2-trifluoro-1-methoxyethyl)phenyl)-4-oxothiazolidin-2-ylidene)urea]	50 to 100	50 to 100		
CC(C)c1ccc(C#N)cc1N1C(=O)CS/C1=N\C(=O)Nc1ccc(-n2cnc(-c3ccc(OC(F)(F)F)cc3)n2)cc1 [Compound J407, (Z)-1-(3-(5-Cyano-2-isopropylphenyl)-4-oxothiazolidin-2-ylidene)-3-(4-(3-(4-(trifluoromethoxy)phenyl)-1H-1,2,4-triazol-1-yl)phenyl)urea]	50 to 100	50 to 100		
Cc1cc(-c2ncn(-c3ccc(C(F)(F)F)cn3)n2)ccc1NC(=O)/N=C1\SCC(=O)N1c1cc(N(C)C)ccc1C(C)C [Compound J285, (Z)-1-(3-(5-(Dimethylamino)-2-isopropylphenyl)-4-oxothiazolidin-2-ylidene)-3-(2-methyl-4-(1-(5-(trifluoromethyl)pyridin-2-yl)-1H-1,2,4-triazol-3-yl)phenyl)urea]			50 to 100	50 to 100
